Measured values reported in PMC7495481, “Sequence specificity analysis of the SETD2 protein lysine methyltransferase and discovery of a SETD2 super-substrate” (Communications Biology, 2020).
Where “and” joins values, the source holds several entries; their conditions need not be identical. Equal values may be shown once.

These sequences were tested against T1, SETD2 (Homo sapiens, UniProt Q9BYW2) (assay: Peptide SPOT array methylation of H3K36 (29–43) variants, super-substrate design (Fig. 2a)). Conditions: SPOT array; 0.76 µM radioactive AdoMet, 3–6 µM SETD2, 60 min, pH 9; autoradiography.
T1 construct: SETD2 catalytic SET domain (amino acids 1347–1711, UniProt No: Q9BYW2); made in house; host or cells: E. coli
T1 sequence (Q9BYW2 1347-1711): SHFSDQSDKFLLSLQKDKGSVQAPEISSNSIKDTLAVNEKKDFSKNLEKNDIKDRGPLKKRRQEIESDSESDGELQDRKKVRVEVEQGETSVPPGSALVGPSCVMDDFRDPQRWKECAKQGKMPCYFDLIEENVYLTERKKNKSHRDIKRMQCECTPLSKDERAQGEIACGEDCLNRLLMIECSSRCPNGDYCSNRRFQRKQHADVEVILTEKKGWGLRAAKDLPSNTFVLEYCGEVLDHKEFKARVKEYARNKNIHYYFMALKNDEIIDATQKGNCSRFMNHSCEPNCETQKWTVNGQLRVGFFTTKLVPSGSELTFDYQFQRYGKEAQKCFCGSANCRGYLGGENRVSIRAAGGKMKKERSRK
Type: biochemical
Text: Based on these observations, we aimed to explore, if better substrates than H3K36 can be designed for SETD2. We synthesized peptide SPOT arrays including H3K36 (29–43) as a positive control and the H3K36A mutant as a negative control, in which up to 5 combined mutations were systematically introduced that converted the original H3K36 residues into residues that are more favored (Fig. 2a and Supplementary Table 1). This peptide array was methylated by SETD2 as described above and the methylation signal was captured by autoradiography.
Fig. 2 Design of an optimized SETD2 peptide substrate and analysis of its methylation. a Variants of the H3K36 (29–43) peptide containing up to five mutations (Supplementary Table 1) were synthesized on a cellulose membrane and methylated by SETD2. The signal of the transferred radioactive methyl groups was detected by autoradiography. Spots A1 and B15 contain the H3K36 sequence, A2 and B16 the H3K36A peptide. Two films with different exposure times are shown to visualize weaker methylated spots as well. b Comparison of the methylation of purified super-substrate (ssK36) and the H3K36 peptides. […] Methylation reactions were conducted using 20 µM peptide and 6 µM enzyme. The lower panels display autoradiography films after different exposure times allowing to compare the methylation levels of the different samples. For comparison, different dilutions of the methylated ssK36 were loaded as indicated. c Time course of ssK36 peptide methylation determined under single turnover conditions using 5 µM substrate and 6 µM enzyme. […] The gels with the radioactive ssK36 (5 µl loaded per well) and H3K36 peptides (20 µl loaded per well) were exposed together to the same x-ray film. […] An enlargement of the H3K36 data with adjusted y-axis scale is shown in Supplementary Fig. 3d.
(§1) Peptide arrays containing fifteen amino acid long peptides were synthesized using the SPOT synthesis method[48] with an Autospot peptide array synthesizer (Intavis AG, Köln, Germany). After synthesis, the obtained membranes were pre-incubated in methylation buffer (20 mM Tris/HCl pH 9, 0.01% Triton X-100, 10 mM DTT, 1.5 mM MgCl2) for 5 min on a shaker. Thereafter, the membranes were incubated in methylation buffer supplemented with 0.76 µM radioactively labeled AdoMet (PerkinElmer) and 3–6 µM SETD2 enzyme for 60 min on a shaker. After methylation, the membranes were washed 5 times for 5 min in wash buffer (100 mM NH4HCO3, 1% SDS) and incubated in amplify NAMP100V (GE Healthcare) for 5 min. This was followed by the exposure of the membranes to a hyperfilm^TM high performance autoradiography (GE Healthcare) film at −80 °C in the dark. The films were developed with an Optimax Typ TR machine after different exposue times. For quantification the signal intensities were measured with the Phoretix^TM software and analyzed with Microsoft Excel.

APAFGGVKKPHRYRP [T32F] was tested, and the “peptide array methylation of H3K36 variants (in words)” value was “stepwise improvement of activity with increasing number of mutations”.

The sequences below were run against T1, SETD2 (assay: Peptide SPOT array target lysine methylation of selected non-histone peptides (Fig. 3b)). Conditions: Exp1–Exp3, 3–6 µM SETD2, 0.76 µM AdoMet, 60 min, pH 9.
Type: biochemical
Text: However, we could identify 166 possible targets, which contain partial matches to the substrate specificity profile. The possible methylation of these 166 putative substrates was investigated at the peptide level. For this, fifteen amino acid long peptides containing the sequence of the non-histone targets surrounding the predicted target lysine were synthesized on a membrane. The H3K36 (29–43) peptide (spots A1, I9), the super-substrate peptide (spots A3, I11) and the corresponding lysine to alanine mutation peptides (spot A2, I10, and A4, I12) were included as positive and negative controls (Fig. 3a, Supplementary Fig. 4 and Supplementary Table 2). The methylation reactions and the detection of the methylation signals were performed in duplicates as described above. We observed that all of the investigated peptides were more weakly methylated than the super-substrate peptide. […] In the next step, 20 of the peptides were selected for further investigation based on the methylation intensity and the known functions of the proteins to confirm the methylation at the predicted target site. The peptides were synthesized on another membrane, now including the target lysine to alanine mutation control peptides in each case. The methylation reactions and the detection of the signal were conducted as described above (Fig. 3b, Supplementary Fig. 5 and Supplementary Table 3).
Fig. 3 Identification of non-histone substrates of SETD2. a Candidate non-histone peptide substrates were identified in the human proteome based on the SETD2 super-substrate specificity profile. The peptides were synthesized on a peptide SPOT array (Supplementary Table 2) and methylated by SETD2. As controls, the H3K36, H3K36A, ssK36 and ssK36A peptides were included on spots A1–A4 and I9–I12. The autoradiography image is an example of the obtained results. […] The quantification of the data of two experiments is shown in Supplementary Fig. 4. b Analysis of target lysine methylation of selected non-histone substrate peptides. Peptide SPOT arrays were synthesized containing the non-histone peptide substrates identified in panel A in addition to the lysine to alanine mutations presented on the array as every second spot (Supplementary Table 3). As controls, the H3K36, H3K36A, ssK36, and ssK36A mutant peptides were included on spot A1–A4 and C5–C8. The autoradiography image is an example of the obtained results. The quantification of the data of three experiments is shown in Supplementary Fig. 5. Peptides selected for furhter analysis are highlighted by blue circles. c Protein methylation of FBN1 and confirmation of the target lysine methylation. Both wild type (WT) and mutant (K666R) FBN1 were purified and equal amounts were methylated by SETD2 (2 µM). […] The size of FBN1 is indicated by an asterisk.
as §1

Going from “AGARGYLATSLCVLG [DYSF K to A, target lysine to alanine control]” to “AGARGYLKTSLCVLG [DYSF, Dysferlin peptide, target lysine 338]”, the “Relative methylation signal, Average” value rises from 0.01828 to 0.2902.

Compared with “ATFLGYFASGLKYKK [GELS K to A, target lysine to alanine control]”, “ATFLGYFKSGLKYKK [GELS, Gelsolin peptide, target lysine 162]” is higher in “Relative methylation signal, Average” value: 0.4943 for the first, 0.5433 for the second.

Compared with “CRKLGGVAKSATFRS [TPD55 K to A, target lysine to alanine control]”, “CRKLGGVKKSATFRS [TPD55, Tumor protein D55 peptide, target lysine 112]” is higher in “Relative methylation signal, Average” value: 0.6652 for the first, 0.7056 for the second.

Going from “DDLYGAIAKLCCVQS [PIWL2 K to A, target lysine to alanine control]” to “DDLYGAIKKLCCVQS [PIWL2, Piwi-like protein 2 peptide, target lysine 685]”, the “Relative methylation signal, Average” value rises from 0.3265 to 0.4271.

First: EMSIGAIAIALEISL [HMCN1 K to A, target lysine to alanine control]
Second: EMSIGAIKIALEISL [HMCN1, Hemicentin-1 peptide, target lysine 127]
The “Relative methylation signal, Average” value of the first is lower: 0.09371 for the first, 0.3311 for the second.

First: GAIIGFIAVGYKKLF [ATAT K to A, target lysine to alanine control]
Second: GAIIGFIKVGYKKLF [ATAT, Alpha-tubulin N-acetyltransferase 1 peptide, target lysine 98]
The “Relative methylation signal, Average” value of the first is lower: 0.4571 for the first, 0.7722 for the second.

Compared with “GHPFGYLAASTALNC [INT6 K to A, target lysine to alanine control]”, “GHPFGYLKASTALNC [INT6, Integrator complex subunit 6 peptide, target lysine 369]” is higher in “Relative methylation signal, Average” value: 0.2106 for the first, 0.398 for the second.

First: KAPRGFLARVFKRKK [CENPW K to A, target lysine to alanine control]
Second: KAPRGFLKRVFKRKK [CENPW, Centromere protein W peptide, target lysine 23]
The “Relative methylation signal, Average” value of the first is lower: 0.3763 for the first, 0.677 for the second.

First: KDVIGAFAKVFACCS [O2T11 K to A, target lysine to alanine control]
Second: KDVIGAFKKVFACCS [O2T11, Olfactory receptor 2T11 peptide, target lysine 299]
The “Relative methylation signal, Average” value of the first is lower: 0.2642 for the first, 0.408 for the second.

Compared with “KRIYGGFASTAGKHP [HABP2 K to A, target lysine to alanine control]”, KRIYGGFKSTAGKHP [HABP2] is higher in “Relative methylation signal, Average” value: 0.2122 for the first, 0.2413 for the second.

First: LHNRGALALTTGKCV [SIA8D K to A, target lysine to alanine control]
Second: LHNRGALKLTTGKCV [SIA8D, CMP-N-acetylneuraminate-poly-alpha-2,8-sialyltransferase peptide, target lysine 350]
The “Relative methylation signal, Average” value of the first is lower: 0.2965 for the first, 0.4366 for the second.

First: LICIGALAKLCNHPC [RA54B K to A, target lysine to alanine control]
Second: LICIGALKKLCNHPC [RA54B, DNA repair and recombination protein RAD54B peptide, target lysine 589]
The “Relative methylation signal, Average” value of the first is lower: 0.4423 for the first, 0.598 for the second.

First: LWKIGFFARPLKKKM [ITA1 K to A, target lysine to alanine control]
Second: LWKIGFFKRPLKKKM [ITA1, Integrin alpha-1 peptide, target lysine 1170]
The “Relative methylation signal, Average” value of the first is lower: 0.403 for the first, 0.4107 for the second.

Going from “RRGIGYLALICFLIP [ANKAR K to A, target lysine to alanine control]” to “RRGIGYLKLICFLIP [ANKAR, Ankyrin and armadillo repeat-containing protein peptide, target lysine 317]”, the “Relative methylation signal, Average” value rises from 0.01267 to 0.4211.

Going from “STCYGGIAKGVCVRP [FBN2 K to A, target lysine to alanine control]” to “STCYGGIKKGVCVRP [FBN2, Fibrillin-2 peptide, target lysine 711]”, the “Relative methylation signal, Average” value rises from 0.3693 to 0.6873.

Going from “STCYGGYARGQCIKP [FBN1 K to A, target lysine to alanine control]” to “TPPLGGYAVTAKCFG [HDAC9 K to A, target lysine to alanine control]”, the “Relative methylation signal, Average” value rises from 0.2279 to 0.4627.

Going from “TPPLGGYKVTAKCFG [HDAC9, Histone deacetylase 9 peptide, target lysine 927]” to “YCLIGGVAMTRFICK [DLEC1 K to A, target lysine to alanine control]”, the “Relative methylation signal, Average” value falls from 0.7696 to 0.4812.

Going from “YCLIGGVKMTRFICK [DLEC1, Deleted in lung and esophageal cancer protein 1 peptide, target lysine 494]” to “YGPFGYIANPYNIFD [CAC1G K to A, target lysine to alanine control]”, the “Relative methylation signal, Average” value falls from 0.8047 to 0.03839.

For “YGPFGYIKNPYNIFD [CAC1G, Voltage-dependent T-type calcium channel subunit alpha-1G peptide, target lysine 804]”, the “Relative methylation signal, Average” value was 0.9453.

In the case of “APRFGGVARPNRYRP [DS K to A, super-substrate K36A peptide, negative control]”, the “Relative methylation signal, Average” value is reported as 0.1136 and 0.1005.
